This test has as its target T1, human glucagon receptor (Homo sapiens, UniProt P47871).
T1 construct: expressed in transfected cells; host or cells: BHK cells (parent BHK570, CRE luciferase clone BHK/KZ10-20-48), clone pLJ6'-4-25
The test can be described thus: Glucagon receptor potency, CRE luciferase reporter gene assay in BHK cells. The format is cell-based. To be noted: BHK cells expressing human glucagon receptor, read-out: EC50 GlucR. In a few lines:
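Stably transfected BHK cells (BHK570 background) expressing human glucagon receptor with CRE-firefly luciferase reporter, 5×10EE3 cells/well in DMEM/HEPES with 2% ovalbumin and 0.2% Pluronic F-68. Compounds 1×10EE-13 to 1×10EE-6 M final, 3 h at 37 °C; luminescence read, EC50 from four-parameter fit, in pM.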
A general note: Reporter assays use an easily measured gene product as a stand-in for the process of interest.

Numbered stars: 1 amine (or outer) side, 2 acyl side, 3 side chain; on linkers, the order of the positions; unused ones are H or OH. Square brackets hold non-standard residues; d marks the D form. Side chains are listed from the residue outwards. Peptide text beside a SMILES is read from it. * marks the point of attachment. C18 diacid = O=C(O)CCCCCCCCCCCCCCCCC(=O)*; γGlu = O=C(O)[C@H](CCC(=O)[*:2])N[*:1]; Ac4c = NC1(C(=O)O)CCC1; AEEA = NCCOCCOCC(=O)O; Aib = CC(C)(N)C(=O)O

T1 sequence (P47871 26-477): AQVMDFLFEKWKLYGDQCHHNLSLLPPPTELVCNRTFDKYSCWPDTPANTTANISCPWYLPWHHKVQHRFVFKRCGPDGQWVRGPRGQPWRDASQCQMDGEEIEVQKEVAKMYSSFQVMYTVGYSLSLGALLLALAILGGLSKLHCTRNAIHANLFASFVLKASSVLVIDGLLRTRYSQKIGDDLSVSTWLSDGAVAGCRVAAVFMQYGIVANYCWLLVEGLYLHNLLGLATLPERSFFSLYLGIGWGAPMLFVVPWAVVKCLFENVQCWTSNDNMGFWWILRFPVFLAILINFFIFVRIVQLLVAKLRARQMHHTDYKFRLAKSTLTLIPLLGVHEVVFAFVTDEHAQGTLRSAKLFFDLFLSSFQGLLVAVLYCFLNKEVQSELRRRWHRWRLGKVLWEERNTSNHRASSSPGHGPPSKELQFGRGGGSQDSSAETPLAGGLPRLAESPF

For orientation: EC50 means the concentration needed to bring the measured effect to its halfway point. Turning to `CC(C)C[C@H](NC(=O)[C@H](CC(=O)O)NC(=O)[C@H](CC(C)C)NC(=O)[C@H](Cc1ccc(O)cc1)NC(=O)[C@H](CCCNC(=N)N)NC(=O)[C@H](CO)NC(=O)[C@H](CC(C)C)NC(=O)[C@H](CC(=O)O)NC(=O)[C@H](CO)NC(=O)[C@@H](NC(=O)[C@H](Cc1ccccc1)NC(=O)[C@@H](NC(=O)CNC(=O)[C@H](CCC(N)=O)NC(=O)C1(NC(=O)[C@@H](N)Cc2c[nH]cn2)CCC1)[C@@H](C)O)[C@@H](C)O)C(=O)N[C@@H](CCCNC(=N)N)C(=O)N[C@@H](CCCNC(=N)N)C(=O)N[C@@H](C)C(=O)N[C@@H](CCCNC(=N)N)C(=O)N[C@@H](CC(=O)O)C(=O)N[C@@H](Cc1ccccc1)C(=O)N[C@H](C(=O)N[C@@H](CCC(N)=O)C(=O)N[C@@H](Cc1c[nH]c2ccccc12)C(=O)N[C@@H](CC(C)C)C(=O)N[C@@H](CC(C)C)C(=O)N[C@@H](CCCCNC(=O)CC[C@H](NC(=O)CC[C@H](NC(=O)COCCOCCNC(=O)COCCOCCNC(=O)CC[C@H](NC(=O)CC[C@H](NC(=O)CCCCCCCCCCCCCCCCC(=O)O)C(=O)O)C(=O)O)C(=O)O)C(=O)O)C(=O)N[C@H](C(N)=O)[C@@H](C)O)C(C)C` [Example 46, N^ε28-[(4S)-4-carboxy-4-[[(4S)-4-carboxy-4-[[2-[2-[2-[[2-[2-[2-[[(4S)-4-carboxy-4-[[(4S)-4-carboxy-4-(17-carboxyheptadecanoylamino)butanoyl]amino]butanoyl]amino]ethoxy]ethoxy]acetyl]amino]ethoxy]ethoxy]acetyl]amino]butanoyl]amino]butanoyl]-[Acb2,Leu10,Arg12,Leu16,Arg20,Leu27,Lys28]-Glucagon amide] (H-H[Ac4c]QGTFTSDLSRYLDLRRARDFVQWLLK([γGlu-γGlu-AEEA-AEEA-γGlu-γGlu-C18 diacid])T-NH2; N-terminus assumed), the EC50 was 16 pM.
For `CC(C)C[C@H](NC(=O)[C@H](CC(=O)O)NC(=O)[C@H](CC(C)C)NC(=O)[C@H](Cc1ccc(O)cc1)NC(=O)[C@H](CCCCN)NC(=O)[C@H](CO)NC(=O)[C@H](CC(C)C)NC(=O)[C@H](CC(=O)O)NC(=O)[C@H](CO)NC(=O)[C@@H](NC(=O)[C@H](Cc1ccccc1)NC(=O)[C@@H](NC(=O)CNC(=O)[C@H](CCC(N)=O)NC(=O)C1(NC(=O)[C@@H](N)Cc2c[nH]cn2)CCC1)[C@@H](C)O)[C@@H](C)O)C(=O)N[C@@H](CCCCN)C(=O)N[C@@H](CCCNC(=N)N)C(=O)N[C@@H](C)C(=O)N[C@@H](CCCNC(=N)N)C(=O)N[C@@H](CCC(=O)O)C(=O)N[C@@H](Cc1ccccc1)C(=O)N[C@H](C(=O)N[C@@H](CCC(N)=O)C(=O)N[C@@H](Cc1c[nH]c2ccccc12)C(=O)N[C@@H](CC(C)C)C(=O)N[C@@H](CC(C)C)C(=O)N[C@@H](CCCCNC(=O)CC[C@H](NC(=O)CC[C@H](NC(=O)COCCOCCNC(=O)COCCOCCNC(=O)CC[C@H](NC(=O)CC[C@H](NC(=O)CCCCCCCCCCCCCCCCC(=O)O)C(=O)O)C(=O)O)C(=O)O)C(=O)O)C(=O)N[C@H](C(N)=O)[C@@H](C)O)C(C)C` [Example 47, N^ε28-[(4S)-4-carboxy-4-[[(4S)-4-carboxy-4-[[2-[2-[2-[[2-[2-[2-[[(4S)-4-carboxy-4-[[(4S)-4-carboxy-4-(17-carboxyheptadecanoylamino)butanoyl]amino]butanoyl]amino]ethoxy]ethoxy]acetyl]amino]ethoxy]ethoxy]acetyl]amino]butanoyl]amino]butanoyl]-[Acb2,Leu10,Leu16,Lys17,Arg20,Glu21,Leu27,Lys28]-Glucagon amide] (H-H[Ac4c]QGTFTSDLSKYLDLKRAREFVQWLLK([γGlu-γGlu-AEEA-AEEA-γGlu-γGlu-C18 diacid])T-NH2; N-terminus assumed) the value was 5 pM.
Consider `CC(C)C[C@H](NC(=O)[C@H](CC(=O)O)NC(=O)[C@H](CC(C)C)NC(=O)[C@H](Cc1ccc(O)cc1)NC(=O)[C@H](CCCCN)NC(=O)[C@H](CO)NC(=O)[C@H](CC(C)C)NC(=O)[C@H](CC(=O)O)NC(=O)[C@H](CO)NC(=O)[C@@H](NC(=O)[C@H](Cc1ccccc1)NC(=O)[C@@H](NC(=O)CNC(=O)[C@H](CCC(N)=O)NC(=O)C1(NC(=O)[C@@H](N)Cc2c[nH]cn2)CCC1)[C@@H](C)O)[C@@H](C)O)C(=O)N[C@@H](CCCNC(=N)N)C(=O)N[C@@H](CCCNC(=N)N)C(=O)N[C@@H](C)C(=O)N[C@@H](CCCNC(=N)N)C(=O)N[C@@H](CCC(=O)O)C(=O)N[C@@H](Cc1ccccc1)C(=O)N[C@H](C(=O)N[C@@H](CCC(N)=O)C(=O)N[C@@H](Cc1c[nH]c2ccccc12)C(=O)N[C@@H](CC(C)C)C(=O)N[C@@H](CC(C)C)C(=O)N[C@@H](CCCCNC(=O)CC[C@H](NC(=O)CC[C@H](NC(=O)COCCOCCNC(=O)COCCOCCNC(=O)CC[C@H](NC(=O)CC[C@H](NC(=O)CCCCCCCCCCCCCCCCC(=O)O)C(=O)O)C(=O)O)C(=O)O)C(=O)O)C(=O)N[C@H](C(N)=O)[C@@H](C)O)C(C)C` [Example 49, N^ε28-[(4S)-4-carboxy-4-[[(4S)-4-carboxy-4-[[2-[2-[2-[[2-[2-[2-[[(4S)-4-carboxy-4-[[(4S)-4-carboxy-4-(17-carboxyheptadecanoylamino)butanoyl]amino]butanoyl]amino]ethoxy]ethoxy]acetyl]amino]ethoxy]ethoxy]acetyl]amino]butanoyl]amino]butanoyl]-[Acb2,Leu10,Leu16,Arg20,Glu21,Leu27,Lys28]-Glucagon amide] (H-H[Ac4c]QGTFTSDLSKYLDLRRAREFVQWLLK([γGlu-γGlu-AEEA-AEEA-γGlu-γGlu-C18 diacid])T-NH2; N-terminus assumed), for which the EC50 was 4 pM.
With `CC(C)C[C@H](NC(=O)[C@H](Cc1c[nH]c2ccccc12)NC(=O)[C@H](CCC(N)=O)NC(=O)[C@@H](NC(=O)[C@H](Cc1ccccc1)NC(=O)[C@H](CCC(=O)O)NC(=O)[C@H](CCCNC(=N)N)NC(=O)[C@H](C)NC(=O)[C@H](CCCNC(=N)N)NC(=O)[C@H](CCCNC(=N)N)NC(=O)C(C)(C)NC(=O)[C@H](CC(=O)O)NC(=O)[C@H](CC(C)C)NC(=O)[C@H](Cc1ccc(O)cc1)NC(=O)[C@H](CCCCN)NC(=O)[C@H](CO)NC(=O)[C@H](CC(C)C)NC(=O)[C@H](CC(=O)O)NC(=O)[C@H](CO)NC(=O)[C@@H](NC(=O)[C@H](Cc1ccccc1)NC(=O)[C@@H](NC(=O)CNC(=O)[C@H](CCC(N)=O)NC(=O)C(C)(C)NC(=O)[C@@H](N)Cc1c[nH]cn1)[C@@H](C)O)[C@@H](C)O)C(C)C)C(=O)N[C@@H](CC(C)C)C(=O)N[C@@H](CCCCNC(=O)CC[C@H](NC(=O)CC[C@H](NC(=O)COCCOCCNC(=O)COCCOCCNC(=O)CC[C@H](NC(=O)CCCCCCCCCCCCCCCCC(=O)O)C(=O)O)C(=O)O)C(=O)O)C(=O)N[C@H](C(N)=O)[C@@H](C)O` [Example 51, N^ε28-[(4S)-4-carboxy-4-[[(4S)-4-carboxy-4-[[2-[2-[2-[[2-[2-[2-[[(4S)-4-carboxy-4-(17-carboxyheptadecanoylamino)butanoyl]amino]ethoxy]ethoxy]acetyl]amino]ethoxy]ethoxy]acetyl]amino]butanoyl]amino]butanoyl]-[Aib2,Leu10,Aib16,Arg20,Glu21,Leu27,Lys28]-Glucagon amide] (H-H[Aib]QGTFTSDLSKYLD[Aib]RRAREFVQWLLK([γGlu-γGlu-AEEA-AEEA-γGlu-C18 diacid])T-NH2; N-terminus assumed) the figure was 4 pM; with `CC(C)C[C@H](NC(=O)[C@H](Cc1ccc(O)cc1)NC(=O)[C@H](CCCCN)NC(=O)[C@H](CO)NC(=O)[C@H](CC(C)C)NC(=O)[C@H](CC(=O)O)NC(=O)[C@H](CO)NC(=O)[C@@H](NC(=O)[C@H](Cc1ccccc1)NC(=O)[C@@H](NC(=O)CNC(=O)[C@H](CCC(N)=O)NC(=O)C(C)(C)NC(=O)[C@@H](N)Cc1c[nH]cn1)[C@@H](C)O)[C@@H](C)O)C(=O)N[C@@H](CCC(=O)O)C(=O)N[C@@H](CO)C(=O)N[C@@H](CCCCN)C(=O)N[C@@H](CCCNC(=N)N)C(=O)N[C@@H](C)C(=O)N[C@@H](CCCNC(=N)N)C(=O)N[C@@H](CCC(=O)O)C(=O)N[C@@H](Cc1ccccc1)C(=O)N[C@H](C(=O)N[C@@H](CCC(N)=O)C(=O)N[C@@H](Cc1c[nH]c2ccccc12)C(=O)N[C@@H](CC(C)C)C(=O)N[C@@H](CC(C)C)C(=O)N[C@@H](CCCCNC(=O)CC[C@H](NC(=O)CC[C@H](NC(=O)[C@H](CO)NC(=O)[C@H](CCC(=O)O)NC(=O)[C@H](CO)NC(=O)CC[C@H](NC(=O)CC[C@H](NC(=O)CCCCCCCCCCCCCCCCC(=O)O)C(=O)O)C(=O)O)C(=O)O)C(=O)O)C(=O)N[C@H](C(N)=O)[C@@H](C)O)C(C)C` [Example 52] (H-H[Aib]QGTFTSDLSKYLESKRAREFVQWLLK([γGlu-γGlu-Ser-Glu-Ser-γGlu-γGlu-C18 diacid])T-NH2; N-terminus assumed), 16 pM.

The values above are taken from patent publication US9474790B2, “Stable, protracted GLP-1/glucagon receptor co-agonists for medical use” (Novo Nordisk A/S, priority 2013, dated 2016).
